Read-outs that look alike come from different tables or passages of the source.
Assays:
[1] = test system: human coronary vascular smooth muscle cells (CASMCs); assay: Inhibition experiment of the proliferation of CASMCs (WST-1 formazan assay, absorbance 450 nm); assay type: cell-based
Description: The CASMCs were purchased from Clonetics Co., and cultured at 37° C., 5% CO2 using an attached culture kit (SmGM-2) in a culture medium comprising 5% fetal bovine serum (FBS), 2 ng/ml human basic fibroblast growth factor (b-FGF), 5 μg/ml bovine insulin, and 0.5 ng/ml human epidermal growth factor.
The CASMCs were cultured in a 96-well plate as in the Example 1 so that about 70˜80% of the area of each well was occupied by the cells, then put into a nutrition-depletion state for 24 hours under a non-serum condition. Roxythromycin (RXM) was then added as a test compound to the culture medium to give various concentration (0.1, 1.0, 10, 100 μg/ml) and the cells were cultured further for 24˜72 hours. The degree of growth of the cells was assayed at each elapsed time by formazan-formation coloring test with WST-1 agent using Takara Premix WST-1 Cell Proliferation Assay System Kit. Actually, Premix WST-1 was added 10 μl each followed by detection of absorbance at 450 nm by means of a plate reader.
The same experiments were conducted using other anti-bacterial and anti-fungal agents.

[2] = test system: CDKIs-p27; assay: Western blot analysis of CDKIs-p27 expression in mitogen-stimulated CASMCs; assay type: cell-based, human; conditions: RXM 1-10 μg/ml, under stimulation with the mitogens, FIG. 5
Description: (§1) Western blot was carried out as follows. After the completion of SDS gel electrophoresis, the resulting bands were transferred to PVDF membrane, blocked with dry milk, incubated successively with a first antibody (anit-phosphorylated Rb rabbit antibody) and a labeled second antibody (anti-rabbit IgG mouse antibody), developed using alkaline phosphatase immuno blot kit and determined by means of a densitometer. The operating conditions in these steps were standard ones known to those skilled in the art.
(§2) In order to examine what kind of modification of intracellular molecules was responsible for the RXM's inhibition of the production of phosphorylated Rb in CASMCs, the analysis was carried out by means of Western blot in the same conditions as in Example 5, focusing attention on […] (CDKIs) that was known to control the intracellular molecules, especially on its major molecules, CDKIs-p27 and CDKIs-p21.
(§3) As an expresssion level of both CDKIs-p27 and CDKIs-p21 was so low in a normal cell that it could not be detected by Western blot, the analysis was actually done on the cells activated after stimulation with the mitogens in the same way as in Example 5.

[3] = test system: CDKIs-p21; assay: Western blot analysis of CDKIs-p21 expression in mitogen-stimulated CASMCs; assay type: cell-based, human; conditions: RXM 1-10 μg/ml, under stimulation with the mitogens, FIG. 5
Description: as §1, §2, §3

[4] = test system: phosphorylated Rb (retinoblastoma gene products); assay: Western blot analysis of phosphorylated Rb in mitogen-stimulated CASMCs; assay type: cell-based, human; conditions: RXM 1-10 μg/ml, FIG. 4
Description: It was analyzed whether or not the RXM's inhibition of the stage from G1 phase to S phase of CASMCs was based on the inhibition of phophorylation of Rb (retinoblastoma gene products) that was supposed to be an essential intracellular molecule for transition in the cell cycle. The analysis was carried out using phosphorylated Rb as a marker by means of Western blot with a monoclonal antibody specifically recognizing phosphorylated Rb (Cell Signaling Technology Co.).
As a level of phosphorylated Rb was so low in normal conditions that it could not be detected by Western blot under normal conditions, the analysis was actually done after 5% FBS, 2 ng/ml human b-FGF, 5 μg/ml bovine insulin, and 0.5 ng/ml human epidermal growth factor had been added to the culture medium in order to stimulate CASMCs with mitogens up to an activated state and to increase an amount of the expressed phosphorylated Rb.
as §1, with “The operating conditions in these steps were standard ones known to those skilled in the art.” left out

[5] = test system: human coronary vascular smooth muscle cells (CASMCs); assay: Cell cycle analysis of CASMCs by flow cytometry (propidium iodide); assay type: cell-based; conditions: RXM 10 μg/ml, FIG. 3
Description: A further experiment was done using a flow cytometry in order to study when the RXM's direct inhibition activity of the proliferation of CASMCs was effected in a cell cycle.
The flow cytometry method was carried out in accordance with the following procedures and conditions.
The cells were fixed with 70% ethanol for 30 min and incubated with RNase (5 μg/ml) for 30 min. They were then incubated with propidium iodide (10 μg/ml) for 30 min, followed by detection with FACScan (Becton Dickinson Co.).
The transition ratio of the cell cycle was obtained by DNA histogram analysis with ModFit LT software, and shown as % for the total cells.

[6] = background statement; cited from earlier work
[7] = test system: mouse; conditions: cited from earlier work
[8] = 50 μg/ml, any time between 24 and 72 hours, FIG. 2

For `CC1(C)S[C@@H]2[C@H](NC(=O)[C@H](N)c3ccccc3)C(=O)N2[C@H]1C(=O)O` [Ampicilin], the “inhibition of the proliferation of CASMCs” value (“inhibition … of CASMCs” for short) [1, 8] was “none”.
With `CC[C@H]1OC(=O)[C@H](C)[C@@H](O[C@H]2C[C@@](C)(OC)[C@@H](O)[C@H](C)O2)[C@H](C)[C@@H](O[C@@H]2O[C@H](C)C[C@H](N(C)C)[C@H]2O)[C@](C)(O)C[C@@H](C)/C(=N\OCOCCOC)[C@H](C)[C@@H](O)[C@]1(C)O` [RXM, roxithromycin] the “expression of CDKIs-p27 in CASMCs” value [2] was “clearly increased in a RXM concentration-dependency manner”, the “inhibition … of CASMCs” value ([1]; RXM 1 μg/ml, any time during the observation (24-72 hours), vs RXM non-added group, FIG. 1A) was “inhibited the proliferation of CASMCs to a statistically significant level” and the “inhibition … of CASMCs” value ([1]; RXM 10 μg/ml, any time during the observation (24-72 hours), vs RXM non-added group, FIG. 1A) was “inhibited the proliferation of CASMCs to a statistically significant level”. The “inhibition … of CASMCs” value ([1]; range of 1-100 μg/ml, drug-dependence manner, vs RXM non-added group, FIG. 1B) was “inhibited the proliferation of CASMCs to a statistically significant level in a drug-dependence manner”, the “expression of CDKIs-p21” value [3] was “no clear difference was observed” and the “production of phosphorylated Rb in CASMCs” value [4] was “clearly inhibited”. For the same molecule, the “inhibition of the stage from G1 phase to S phase in a cell cycle” value [5] was “inhibited a stage from G1 phase to S phase in a cell cycle to a statistically significant level” and the “inhibition of the stage from S phase to G2/M phase” value [5] was “did not inhibit”.
With Gentamicin the “inhibition … of CASMCs” value [1, 8] was “none”.
For `CO[C@H]1C[C@@H]2CC[C@@H](C)[C@@](O)(O2)C(=O)C(=O)N2CCCC[C@H]2C(=O)O[C@H]([C@H](C)C[C@@H]2CC[C@@H](O)[C@H](OC)C2)CC(=O)[C@H](C)/C=C(\C)[C@@H](O)[C@@H](OC)C(=O)[C@H](C)C[C@H](C)/C=C/C=C/C=C/1C` [Rapamycin, rapamycin], the cytotoxicity [6] is listed as “strong cytotoxicity”.
In the case of `CC[C@H]1OC(=O)[C@H](C)[C@@H](O[C@H]2C[C@@](C)(OC)[C@@H](O)[C@H](C)O2)[C@H](C)[C@@H](O[C@@H]2O[C@H](C)C[C@H](N(C)C)[C@H]2O)[C@](C)(O)C[C@@H](C)C(=O)[C@H](C)[C@@H](O)[C@]1(C)O.Cl` [erythromaycin hydrochloride, erythromaycin], the “Acute toxicity (mouse LD50)” value ([7]; interperitoreal) is given as 490 ± 30.4 mg/kg and the “Acute toxicity (mouse LD50)” value ([7]; vein) is given as 425.6 ± 15.7 mg/kg.
In the case of `C[C@@H]1[C@H](O)[C@@H](C)/C=C/C=C/C=C/C=C/C=C/C=C/C=C/[C@H](O[C@@H]2O[C@H](C)[C@@H](O)[C@H](N)[C@@H]2O)C[C@@H]2O[C@](O)(C[C@@H](O)C[C@@H](O)[C@H](O)CC[C@@H](O)C[C@@H](O)CC(=O)O[C@H]1C)C[C@H](O)[C@H]2C(=O)O` [Amphotericin B], the “inhibition … of CASMCs” value ([1]; 50 ng/ml, any time between 24 and 72 hours, FIG. 2) is reported as “none”.

Reference: patent publication US20070010463A1, “Remedies for diseases caused by strengthened vascular smooth muscle using 14-membered ring macrolid compounds” (priority 2003, published 2007)
